Laboratory results: PMC10952572, “Improved PIEZO1 agonism through 4‐benzoic acid modification of Yoda1” (British Journal of Pharmacology, 2023)
pEC50: −log10 of the molar value.

What was measured:
mPIEZO1 = molecular target: T1, mPIEZO1 (Mus musculus, UniProt E2JF22); assay: Automated patch clamp (SyncroPatch 384) on mPIEZO1-TREx cells; format: cell-based; details: for Effect on M-Stim-evoked currents: mPIEZO1-TREx cells, −80 mV; for Cells responding to activation: mPIEZO1-TREx, 10 μM KC157, 10 μM Yoda1, 5 μM KC159
T1 construct: expressed in transfected cells
T1 sequence (E2JF22 whole entry): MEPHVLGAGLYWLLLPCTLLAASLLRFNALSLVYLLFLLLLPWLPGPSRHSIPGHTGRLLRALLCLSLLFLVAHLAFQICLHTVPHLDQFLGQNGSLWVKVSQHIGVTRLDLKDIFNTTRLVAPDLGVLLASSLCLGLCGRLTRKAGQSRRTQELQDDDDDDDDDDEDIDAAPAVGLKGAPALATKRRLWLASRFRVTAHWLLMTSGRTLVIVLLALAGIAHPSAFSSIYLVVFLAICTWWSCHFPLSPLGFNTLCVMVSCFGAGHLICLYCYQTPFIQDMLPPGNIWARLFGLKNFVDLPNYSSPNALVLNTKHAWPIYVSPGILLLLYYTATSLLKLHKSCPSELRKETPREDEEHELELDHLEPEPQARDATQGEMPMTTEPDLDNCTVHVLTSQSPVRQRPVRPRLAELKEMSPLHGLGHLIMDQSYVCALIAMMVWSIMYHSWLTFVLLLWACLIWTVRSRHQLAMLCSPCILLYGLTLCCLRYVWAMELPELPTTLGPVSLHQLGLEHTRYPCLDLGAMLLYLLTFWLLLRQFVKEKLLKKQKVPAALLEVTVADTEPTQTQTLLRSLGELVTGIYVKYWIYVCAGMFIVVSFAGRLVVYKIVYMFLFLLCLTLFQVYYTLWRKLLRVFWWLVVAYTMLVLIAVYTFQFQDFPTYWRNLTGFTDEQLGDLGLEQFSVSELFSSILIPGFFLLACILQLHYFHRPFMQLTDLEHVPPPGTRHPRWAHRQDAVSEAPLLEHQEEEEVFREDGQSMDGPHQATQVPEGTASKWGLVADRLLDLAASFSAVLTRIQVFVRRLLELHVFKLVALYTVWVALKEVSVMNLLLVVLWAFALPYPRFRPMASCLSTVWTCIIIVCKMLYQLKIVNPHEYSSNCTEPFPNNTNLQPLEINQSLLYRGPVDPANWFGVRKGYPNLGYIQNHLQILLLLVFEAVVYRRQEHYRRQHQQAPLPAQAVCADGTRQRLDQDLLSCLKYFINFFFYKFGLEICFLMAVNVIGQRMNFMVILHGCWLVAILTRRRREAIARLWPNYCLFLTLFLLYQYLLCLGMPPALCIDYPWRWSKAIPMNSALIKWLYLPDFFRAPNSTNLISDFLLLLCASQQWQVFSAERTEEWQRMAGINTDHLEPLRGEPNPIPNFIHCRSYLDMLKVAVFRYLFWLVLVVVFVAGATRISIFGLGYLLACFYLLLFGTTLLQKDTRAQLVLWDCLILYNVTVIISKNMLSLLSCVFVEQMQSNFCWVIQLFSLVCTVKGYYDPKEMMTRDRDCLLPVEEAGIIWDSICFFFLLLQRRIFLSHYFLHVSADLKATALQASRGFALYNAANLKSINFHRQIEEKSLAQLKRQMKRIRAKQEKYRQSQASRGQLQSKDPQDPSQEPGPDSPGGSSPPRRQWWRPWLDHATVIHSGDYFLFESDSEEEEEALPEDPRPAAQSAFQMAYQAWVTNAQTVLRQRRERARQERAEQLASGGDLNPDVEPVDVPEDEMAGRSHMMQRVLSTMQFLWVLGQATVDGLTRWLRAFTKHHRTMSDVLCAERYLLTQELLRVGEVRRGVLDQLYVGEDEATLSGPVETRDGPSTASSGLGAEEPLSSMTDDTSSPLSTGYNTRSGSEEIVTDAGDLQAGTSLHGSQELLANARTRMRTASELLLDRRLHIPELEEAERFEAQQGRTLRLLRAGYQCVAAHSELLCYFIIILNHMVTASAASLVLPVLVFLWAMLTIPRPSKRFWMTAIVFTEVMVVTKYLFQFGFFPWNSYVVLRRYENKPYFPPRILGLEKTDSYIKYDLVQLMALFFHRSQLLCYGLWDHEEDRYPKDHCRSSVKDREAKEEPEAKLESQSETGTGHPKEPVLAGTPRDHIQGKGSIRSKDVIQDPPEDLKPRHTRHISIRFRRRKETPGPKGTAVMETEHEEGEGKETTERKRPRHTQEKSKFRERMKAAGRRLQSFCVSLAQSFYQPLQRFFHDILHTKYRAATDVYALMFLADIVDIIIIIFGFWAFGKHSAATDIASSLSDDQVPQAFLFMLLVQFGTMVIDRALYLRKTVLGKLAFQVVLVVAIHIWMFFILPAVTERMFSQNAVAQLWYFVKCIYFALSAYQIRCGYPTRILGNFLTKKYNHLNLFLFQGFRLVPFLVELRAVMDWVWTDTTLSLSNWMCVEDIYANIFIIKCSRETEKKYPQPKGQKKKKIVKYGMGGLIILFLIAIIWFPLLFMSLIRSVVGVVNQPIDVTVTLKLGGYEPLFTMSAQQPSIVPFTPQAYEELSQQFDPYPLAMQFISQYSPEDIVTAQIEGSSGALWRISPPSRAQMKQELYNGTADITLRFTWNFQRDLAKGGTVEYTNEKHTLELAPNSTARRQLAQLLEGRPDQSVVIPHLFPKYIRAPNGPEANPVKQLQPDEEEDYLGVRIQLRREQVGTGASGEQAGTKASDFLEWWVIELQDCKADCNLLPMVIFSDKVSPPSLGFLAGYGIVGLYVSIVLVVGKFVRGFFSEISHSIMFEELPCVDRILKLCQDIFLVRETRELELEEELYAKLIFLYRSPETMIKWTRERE
Description: For automated patch clamp, cells were cultured and harvested according to Nanion's standard cell culture protocol (Obergrussberger et al., [2014]). hPIEZO1‐TREx cells were induced to express PIEZO1 by incubation with 0.5 μg·ml^−1 tetracycline 24 h prior to experiments. Whole‐cell patch‐clamp recordings were conducted on HEK‐TREx, hPIEZO1‐TREx and mPIEZO1‐TREx cells according to Nanion's standard procedure for the SyncroPatch 384, using medium resistance (4–5 MΩ) chips (Obergrussberger et al., [2018]). Cells were held at −80 mV for the duration of the experiment. The channel was activated by mechanical forces in the absence and presence of the agonists. To stimulate PIEZO1 channels mechanically (mechanical stimulation [M‐Stim]), we dispensed 20 μl of solution (either reference or agonist) locally to the cell at a pipetting speed of 110 μl·s^−1 in synchrony with a triggered recording of the current response at the holding potential. The internal solution contained 110 mM KF, 10 mM KCl, 10 mM NaCl, 10 mM HEPES and 10 mM EGTA, pH adjusted to 7.2 with KOH, and the external solution contained 140 mM NaCl, 4 mM KCl, 2 mM CaCl2, 1 mM MgCl2, 5 mM glucose, 10 mM HEPES, pH adjusted to 7.4 with NaOH, and 0.1% DMSO to match the DMSO concentration of the compound solutions. For PIEZO1 stimulation, KC159, KC157 or Yoda1 was applied directly onto the cells via a pipette application. One chip of the SyncroPatch 384 is equipped with 384 wells served by 384 robotic pipettes and connected to 384 individual amplifiers, allowing us to test 384 distinct cells in one experiment. We tested the effect of each specified analogue on mPIEZO1‐, hPIEZO1‐ and untransfected HEK‐TREx cells in parallel and in comparison to mechanical and Yoda1 stimulation. To estimate the EC50 values, four concentrations of each agonist were tested per cell line in one chip, with each cell receiving single concentrations, and the concentration–response curve was calculated across the whole chip (384 cells). Only cells with seal resistance >0.3 GΩ, series resistance <20 MΩ and cell capacitance >5 and <40 pF were used for analysis.
DataControl 384 (Nanion Technologies GmbH), Prism 9 (GraphPad) and OriginPro 2020 (OriginLab) were used for all analysis of automated patch‐clamp data. For manual and automated patch‐clamp data, n represents the number of cells recorded from successfully in each experimental condition, sampled from two to six batches of cells or 384‐well chips in automated patch clamp. For manual patch‐clamp experiments, each cell/patch recording (n) is considered as an independent experiment because each was made independently at a separate time, using a separate coverslip of cells and using a separate patch pipette. In some instances, more than one such independent recording was made from the same batch of cultured or transfected cells. These n values are considered as independent. Each cell was studied alone and from a separate coverslip in the case for manual patch clamp. To estimate the EC50 values of the agonists in automated patch‐clamp studies, the peak current in the presence of the agonist was normalised to the peak current in the presence of the reference solution. Single‐point concentration–response curves were fitted with a standard Hill equation to estimate EC50 values. P < 0.05 was deemed significant. For automated patch‐clamp experiments, we included some data for n < 5 (Figure 7a,b). […] Such replicates are a feature of, and a rationale for, this automated technology, which is an innovation for the type of research shown here but already commonly used in the pharmaceutical industry for other ion channel studies to increase throughput and avoid waste from large volumes of independent cell cultures and minimise cost from expensive specially engineered plates. As a general strategy, our study used multiple independent technical approaches to address the same or similar questions. […]

mPIEZO2 = molecular target: T2, mPIEZO2 (Mus musculus, UniProt Q8CD54); assay: Intracellular Ca2+ measurement in HEK 293 cells overexpressing mPIEZO2; format: cell-based; details: 10 μM, versus non-transfected cells
T2 construct: host or cells: HEK 293, transient
Description: mPIEZO2 pCMV‐Sport6 was a gift from Ardem Patapoutian (Coste et al., [2015]), obtained via Addgene (Addgene plasmid #81073; http://n2t.net/addgene:81073; RRID:Addgene_81073). It was sequenced for validation. Transient transfection of the plasmid was achieved using Lipofectamine 3000 in HEK 293 cells, 48 h prior to measurements being made.
HEK 293‐TREx cells and their stably transfected derivatives or transiently transfected HEK 293 or HeLa cells were seeded at a density of 7.5 × 10^4 cells per well into poly‐D‐lysine‐coated 96‐well plates. The plates were either commercially pre‐coated with poly‐D‐lysine (Greiner Bio‐One #655946) or (Greiner Bio‐One #655090) were coated in‐house with 35 μl of a 10 μg·ml^−1 poly‐D‐lysine (Bio‐Techne, Cultrex # 3439‐100‐01) in sterile deionised water per well for at least 24 h and rinsed three times with 100 μl per well sterile D‐PBS before addition of cells. HUVECs were seeded into tissue culture‐treated 96‐well plates (Greiner Bio‐One #655090) at a density of either 2.5 × 10^4 cells 24 h before experimentation or 1.25 × 10^4 cells 48 h before experimentation. […] Measurements were made at room temperature on a 96‐well fluorescence plate reader (FlexStation 3, Molecular Devices, Sunnyvale, CA, USA) controlled by SoftMax Pro software v7.0.3. […]

SMILES	Effect on M-Stim-evoked currents (mPIEZO1; 10 μM)	Cells responding to activation (mPIEZO1)	Sustained component of current as % of the peak current amplitude (mPIEZO1; 10 μM, mPIEZO1 cells, mean ± SD) [%]	pEC50 (mPIEZO1; mouse PIEZO1, normalised peak current, maximum response not certain, read-out: EC50 (estimate))	Ca2+ elevations in cells overexpressing mPIEZO2 (mPIEZO2)
O=C(O)c1ccccc1-c1nnc(SCc2c(Cl)cccc2Cl)s1 [KC157]	mostly fails to evoke responses	largely ineffective	–	–	–
O=C(O)c1ccc(-c2nnc(SCc3c(Cl)cccc3Cl)s2)cc1 [KC159]	greatly amplifies the currents	more cells to respond compared with Yoda1	26 ± 8	~5.81	not different from background signals in non‐transfected cells
O=C([O-])c1ccc(-c2nnc(SCc3c(Cl)cccc3Cl)s2)cc1.[K+] [KC289]	–	–	–	–	not different from background signals in non‐transfected cells
